Test system: 695427-040-R-J1-PDC complex spheroid viability
Experiment: Anticancer human tumor 695427-040-R-J1-PDC patient-derived colon adenocarcinoma cell line growth inhibition [POLQ]
Settings: for IC50: curve of first compound; for viability, T/C: stronger effect = lower value
How it was run: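 Growth inhibition in 3D: complex spheroids (tumor PDC, HUVEC, MSC) treated with POLQ inhibitor combinations; where Cmax unknown, highest tested concentration 10 microM, except SN-38 at 1 microM.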

[1] = second compound 0.0316 µM, first compound 0.0316 µM
[2] = second compound 0.0316 µM, first compound 0.1 µM
[3] = second compound 0.0316 µM, first compound 0.316 µM
[4] = second compound 0.0316 µM, first compound 1 µM
[5] = second compound 0.0316 µM, first compound 3.16 µM
[6] = second compound 0.0316 µM, first compound 10 µM
[7] = second compound 0.1 µM, first compound 0.0316 µM
[8] = second compound 0.1 µM, first compound 0.1 µM
[9] = second compound 0.1 µM, first compound 0.316 µM
[10] = second compound 0.1 µM, first compound 1 µM
[11] = second compound 0.1 µM, first compound 3.16 µM
[12] = second compound 0.1 µM, first compound 10 µM
[13] = second compound 0.316 µM, first compound 0.0316 µM
[14] = second compound 0.316 µM, first compound 0.1 µM
[15] = second compound 0.316 µM, first compound 0.316 µM
[16] = second compound 0.316 µM, first compound 1 µM
[17] = second compound 0.316 µM, first compound 3.16 µM
[18] = second compound 0.316 µM, first compound 10 µM
[19] = second compound 1 µM, first compound 0.0316 µM
[20] = second compound 1 µM, first compound 0.1 µM
[21] = second compound 1 µM, first compound 0.316 µM
[22] = second compound 1 µM, first compound 1 µM
[23] = second compound 1 µM, first compound 3.16 µM
[24] = second compound 1 µM, first compound 10 µM
[25] = second compound 3.16 µM, first compound 0.0316 µM
[26] = second compound 3.16 µM, first compound 0.1 µM
[27] = second compound 3.16 µM, first compound 0.316 µM
[28] = second compound 3.16 µM, first compound 1 µM
[29] = second compound 3.16 µM, first compound 3.16 µM
[30] = second compound 3.16 µM, first compound 10 µM
[31] = second compound 10 µM, first compound 0.0316 µM
[32] = second compound 10 µM, first compound 0.1 µM
[33] = second compound 10 µM, first compound 0.316 µM
[34] = second compound 10 µM, first compound 1 µM
[35] = second compound 10 µM, first compound 3.16 µM
[36] = second compound 10 µM, first compound 10 µM
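Further: spheroids exposed to compounds for seven days.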
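Wherever viability, T/C is given: 100% = DMSO vehicle control viability.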

Compound: CC1COCCN1c1cc(C2(O)CC3CCC(C2)O3)c2cnn(-c3ccn[nH]3)c2n1 (stereo unspecified) + Cc1cccc(N(C)C(=O)C2C(O)CCN2c2nc(C)cc(C(F)(F)F)c2C#N)c1
- IC50 (second compound 0.0316 µM): 6.2 µM
- IC50 (second compound 0.1 µM): 7.33 µM
- IC50 (second compound 0.316 µM): 6.13 µM
- IC50 (second compound 1 µM): 6.54 µM
- IC50 (second compound 3.16 µM): 4.63 µM
- IC50 (second compound 10 µM): 2.82 µM
- viability, T/C [1]: 102%
- viability, T/C [2]: 84.5%
- viability, T/C [3]: 76.9%
- viability, T/C [4]: 66%
- viability, T/C [5]: 52.5%
- viability, T/C [6]: 47.3%
- viability, T/C [7]: 102%
- viability, T/C [8]: 91.3%
- viability, T/C [9]: 85%
- viability, T/C [10]: 70.8%
- viability, T/C [11]: 55.9%
- viability, T/C [12]: 47.9%
- viability, T/C [13]: 109%
- viability, T/C [14]: 88.1%
- viability, T/C [15]: 80.6%
- viability, T/C [16]: 67.1%
- viability, T/C [17]: 58.4%
- viability, T/C [18]: 44%
- viability, T/C [19]: 100%
- viability, T/C [20]: 91.4%
- viability, T/C [21]: 82.6%
- viability, T/C [22]: 66.6%
- viability, T/C [23]: 56.8%
- viability, T/C [24]: 46.3%
- viability, T/C [25]: 96%
- viability, T/C [26]: 92.6%
- viability, T/C [27]: 73.8%
- viability, T/C [28]: 65.6%
- viability, T/C [29]: 53.8%
- viability, T/C [30]: 43.5%
- viability, T/C [31]: 93.3%
- viability, T/C [32]: 88.6%
- viability, T/C [33]: 70.3%
- viability, T/C [34]: 56.1%
- viability, T/C [35]: 51.5%
- viability, T/C [36]: 45.6%

Compound: CCc1cc2c(N3CCc4c(cc(Cn5ccnc5)cc4-c4cn(C)nc4C(F)(F)F)C3=O)cc(C)nc2c(OC)n1 + Cc1cccc(N(C)C(=O)C2C(O)CCN2c2nc(C)cc(C(F)(F)F)c2C#N)c1
- IC50 (second compound 0.0316 µM): > 10 µM
- IC50 (second compound 0.1 µM): > 10 µM
- IC50 (second compound 0.316 µM): > 10 µM
- IC50 (second compound 1 µM): > 10 µM
- IC50 (second compound 3.16 µM): > 10 µM
- IC50 (second compound 10 µM): > 10 µM
- viability, T/C [1]: 102%
- viability, T/C [2]: 99.6%
- viability, T/C [3]: 104%
- viability, T/C [4]: 108%
- viability, T/C [5]: 108%
- viability, T/C [6]: 98.3%
- viability, T/C [7]: 110%
- viability, T/C [8]: 100%
- viability, T/C [9]: 102%
- viability, T/C [10]: 107%
- viability, T/C [11]: 103%
- viability, T/C [12]: 103%
- viability, T/C [13]: 108%
- viability, T/C [14]: 105%
- viability, T/C [15]: 93.2%
- viability, T/C [16]: 105%
- viability, T/C [17]: 110%
- viability, T/C [18]: 95.7%
- viability, T/C [19]: 117%
- viability, T/C [20]: 95.6%
- viability, T/C [21]: 88.3%
- viability, T/C [22]: 95.4%
- viability, T/C [23]: 108%
- viability, T/C [24]: 85.2%
- viability, T/C [25]: 99.8%
- viability, T/C [26]: 92.2%
- viability, T/C [27]: 91.8%
- viability, T/C [28]: 106%
- viability, T/C [29]: 97.5%
- viability, T/C [30]: 108%
- viability, T/C [31]: 102%
- viability, T/C [32]: 98.7%
- viability, T/C [33]: 87.8%
- viability, T/C [34]: 95.4%
- viability, T/C [35]: 93.9%
- viability, T/C [36]: 89.7%

Compound: CCc1cc2c(N3CCc4c(cc(Cn5ccnc5)cc4-c4cn(C)nc4C(F)(F)F)C3=O)ccnc2c(OC)n1 + Cc1cccc(N(C)C(=O)C2C(O)CCN2c2nc(C)cc(C(F)(F)F)c2C#N)c1
- IC50 (second compound 0.0316 µM): > 10 µM
- IC50 (second compound 0.1 µM): > 10 µM
- IC50 (second compound 0.316 µM): > 10 µM
- IC50 (second compound 1 µM): > 10 µM
- IC50 (second compound 3.16 µM): > 10 µM
- IC50 (second compound 10 µM): > 10 µM
- viability, T/C [1]: 97%
- viability, T/C [2]: 99.7%
- viability, T/C [3]: 98.2%
- viability, T/C [4]: 104%
- viability, T/C [5]: 105%
- viability, T/C [6]: 92.4%
- viability, T/C [7]: 110%
- viability, T/C [8]: 107%
- viability, T/C [9]: 109%
- viability, T/C [10]: 103%
- viability, T/C [11]: 114%
- viability, T/C [12]: 89.3%
- viability, T/C [13]: 105%
- viability, T/C [14]: 109%
- viability, T/C [15]: 92.8%
- viability, T/C [16]: 113%
- viability, T/C [17]: 109%
- viability, T/C [18]: 81.3%
- viability, T/C [19]: 103%
- viability, T/C [20]: 108%
- viability, T/C [21]: 105%
- viability, T/C [22]: 103%
- viability, T/C [23]: 102%
- viability, T/C [24]: 82.7%
- viability, T/C [25]: 101%
- viability, T/C [26]: 94.9%
- viability, T/C [27]: 95.2%
- viability, T/C [28]: 103%
- viability, T/C [29]: 99.8%
- viability, T/C [30]: 85.5%
- viability, T/C [31]: 98%
- viability, T/C [32]: 86.4%
- viability, T/C [33]: 93.6%
- viability, T/C [34]: 97.8%
- viability, T/C [35]: 103%
- viability, T/C [36]: 83.6%

— PubChem BioAssay AID1963840 (Molecular Pharmacology Branch, DTP, NCI, 2024)
